According to patent publication US20200338056A1, “INDUCTION OF SENESCENCE USING PROTON PUMP INHIBITORS” (THE METHODIST HOSPITAL SYSTEM, priority 2016, published 2020):
Entries after “also recorded” stand apart in the source; their conditions may differ.

Key:
[1] = tested on: Human microvascular endothelial cells (ECs); assay: Total nitrate/nitrite (NOx) by Griess colorimetric assay; assay type: cell-based; details: ECs treated chronically, vs vehicle
Experimental: (§1) Cell culture. Human microvascular endothelial cells (ECs) purchased from Lonza (cat # CC-2543, Basel, Switzerland) were cultured continuously for three passages from passage (P) 4 to P6 in the presence of clinically relevant doses of esomeprazole or vehicle (DMSO) (Shin J M, Kim N. Pharmacokinetics and pharmacodynamics of the proton pump inhibitors. Journal of neurogastroenterology and motility. 2013; 19:25-35). All in vitro experiments were performed at P6 upon confluency. […]
(§2) Measurement of superoxide and nitric oxide. Superoxide and nitric oxide were measured in ECs using live cell imaging dyes; DHE (Molecular Probes® cat # D-1168, Eugene, Oreg.) for superoxide and DAF-2DA (Sigma cat #50277, St. Louis, Mo.) for nitric oxide measurement according to the published protocol (Yepuri G, et al., Positive crosstalk between arginase-ii and s6k1 in vascular endothelial inflammation and aging. Aging cell. 2012; 11:1005-1016). Several images per well were captured using Olympus IX51 Inverted fluorescence microscope. Relative fluorescence intensities of images were quantified using NIH ImageJ software. The total NO concentration (NOx) was determined using the Griess colorimetric assay as previously described (Ghebremariam Y T, et al., Fxr agonist int-747 upregulates ddah expression and enhances insulin sensitivity in high-salt fed dahl rats. PloS one. 2013; 8:e60653).

[2] = tested on: Human microvascular endothelial cells (ECs); assay: BrdU cell proliferation ELISA; assay type: cell-based; details: chronic exposure, 3 passages, vs vehicle
Experimental: (§3) Cell culture. Human microvascular endothelial cells (ECs) purchased from Lonza (cat # CC-2543, Basel, Switzerland) were cultured continuously for three passages from passage (P) 4 to P6 in the presence of clinically relevant doses of esomeprazole or vehicle (DMSO) (Shin J M, Kim N. Pharmacokinetics and pharmacodynamics of the proton pump inhibitors. Journal of neurogastroenterology and motility. 2013; 19:25-35). All in vitro experiments were performed at P6 upon confluency. ECs were cultured and maintained in EBM-2 Basal Medium (cat # CC-3156, Lonza, Basel, Switzerland) supplemented with EGM-2 MV SingleQuots™ Kit—growth factors, cytokines, and antibiotics (cat # CC-4147, Lonza, Basel, Switzerland).

[3] = tested on: Human microvascular endothelial cells (ECs); assay: Telomere length by monochrome multiplex qPCR (MMqPCR); assay type: cell-based; details: vs vehicle
Experimental: as §3
Telomere length and telomerase activity. Telomere length in ECs was measured using monochrome multiplex qPCR (MMqPCR) assay as described previously (Ramunas J, et al., Transient delivery of modified mrna encoding tert rapidly extends telomeres in human cells. FASEB journal: official publication of the Federation of American Societies for Experimental Biology. 2015; 29:1930-1939). The telomeric repeat amplification protocol (TRAP) was performed using TRAPeze® Telomerase Detection Kit (EMD Millipore Inc. cat # S7700, Darmstadt, Germany). […] In brief, ECs treated with esomeprazole or vehicle were collected, counted and total protein was isolated from 100,000 cells. […]

[4] = tested on: telomerase; assay: Telomeric repeat amplification protocol (TRAP) telomerase activity; assay type: cell-based, human; details: TRAP assay, esomeprazole and vehicle ECs
Experimental: Telomere length and telomerase activity. Telomere length in ECs was measured using monochrome multiplex qPCR ([…]) assay as described previously (Ramunas J, et al., Transient delivery of modified mrna encoding tert rapidly extends telomeres in human cells. FASEB journal: official publication of the Federation of American Societies for Experimental Biology. 2015; 29:1930-1939). The telomeric repeat amplification protocol (TRAP) was performed using TRAPeze® Telomerase Detection Kit (EMD Millipore Inc. cat # S7700, Darmstadt, Germany). Experiment was performed according to the manufacturer's instructions. In brief, ECs treated with esomeprazole or vehicle were collected, counted and total protein was isolated from 100,000 cells. The amount of lysate used per reaction was normalized to the amount of 1,000 cells for ECs and 500 cells for telomerase positive control (PC). In short, TRAP was performed at 30° C. for 30 minutes and resulting products were amplified in a 29 cycle PCR reaction. Heat inactivated (hi) lysate samples for each condition were used as internal negative controls.

[5] = tested on: Human microvascular endothelial cells (ECs); assay: Lysosomal pH by pHrodo Green/Red dextran fluorescence in live ECs; assay type: cell-based
Experimental: as §1
(§4) Lysosomal studies. Cellular pH, lysosomal cathepsin B and protein aggregation were measured in live ECs using pHrodo™ Green/Red dextran, 10,000 MW dye (cat: P35368/P35372, MOLECULAR PROBES®, Life Technologies, Carlsbad, Calif.), Magic Red™ Cathepsin B Assay Kit (cat: 938, ImmunoChemistry Technologies LLC, Bloomington, Minn.) and PROTEOSTAT® Protein aggregation assay (cat: ENZ-51023-KP002, Enzo Life Sciences, Inc., Farmingdale, N.Y.). The pHrodo™ Green dextran when endocytosed permits visualization of endosomal pH, with an inverse non-linear relationship of fluorescence intensity to pH. […] Fluorescence images were taken using Olympus IX51 Inverted fluorescence microscope at 10× magnification and 40× for protein aggregation. All images were quantified using NIH ImageJ 1.47v software. […] Absorbance was measured using Tecan Infinite® M1000 PRO multimode reader at 405 nm (Tecan, Mannedorf, Switzerland).

[6] = tested on: Human microvascular endothelial cells (ECs); assay: Long term studies of endothelial histology (81 days after drug discontinued); assay type: cell-based; details: 5 or 10 μmol/L for 3 passages, then 81 days without drug, vs vehicle
Experimental: Long term studies of endothelial histology. After ECs were exposed to vehicle or ESO (5 or 10 uM) through 3 passages (P4-P6), the treatment with ESO or vehicle was discontinued when the cells reached confluency at P6. Subsequently the cells in all groups were maintained in endothelial growth medium which was routinely replaced with fresh medium every 48 hours for 81 days. Microphotographs were taken at regular intervals throughout, and on the final day of culture.

[7] = tested on: Human microvascular endothelial cells (ECs); assay: Nitric oxide by DAF-2DA live cell imaging; assay type: cell-based; details: ECs treated chronically, vs vehicle
Experimental: as §1, §2

[8] = tested on: Human microvascular endothelial cells (ECs); assay: Superoxide anion by dihydroethidium (DHE) live cell imaging; assay type: cell-based; details: ECs treated chronically, vs vehicle
Experimental: as §1, §2

[9] = tested on: acid phosphatase; assay: Acid phosphatase activity assay, EC lysate; assay type: cell-based, human; details: ECs treated chronically, 5 and 10 μmol/L, P4-6, vs vehicle
Experimental: as §1, §4

[10] = tested on: Human microvascular endothelial cells (ECs); assay: Network formation assay on growth factor reduced matrigel (angiogenic capacity); assay type: cell-based; details: growth factor-depleted matrigel, vs vehicle
Experimental: as §3
Network formation assay to measure angiogenic capacity. In order to assess angiogenic capacity of ECs, growth factor reduced matrigel from BD Biosciences (cat #354230, San Jose, Calif.) was used. In brief, 24 well flat transparent plates were coated with 200 μl of matrigel/well and allowed to set at 37° C. for one hour. Subsequently, 1×10^5 cells/well were seeded and allowed to incubate for 16 hours at 37° C. Several images per well were obtained using Olympus IX51 Inverted fluorescence and bright field microscope. Network branching was quantified using NIH ImageJ software. Total length is equal to the summed length of all segments, branches and isolated branches not within the main network. […]

[11] = tested on: Human microvascular endothelial cells (ECs); assay: Quantitative PCR (Taqman) gene expression in ECs; assay type: cell-based; details: RT-PCR, vs vehicle
Experimental: as §3
Quantitative PCR and PCR array. Total RNA was isolated from cultured cells using PerfectPure RNA Cultured Cell Kit-50 from 5 PRIME (cat #2900319, San Francisco, Calif.) according to the manufacturer's instruction. Complementary DNA (cDNA) was prepared using gScript™ cDNA SuperMix (Quanta BioSciences, Inc. cat #95048, Beverly, Mass.). Quantitative PCR (qPCR) was performed using Taqman gene expression assays (Applied Biosystems, Foster City, Calif.). All genes analyzed for expression (listed in the table below) were normalized to GAPDH expression and expressed as relative fold changes using the ΔCt method of analysis. Gene expression of shelterin complex genes was quantified using SYBR™ Green Real Time PCR master mix. Primers for genes related to shelterin complex were obtained from Integrated DNA Technologies, Inc. (San Jose, Calif.) and are listed in the table below. RT^2 Profiler PCR Array (Qiagen, Hilden, Germany) was used to assess expression of selected genes associated with specific cellular functions following manufacturer's instructions. Name, catalog numbers and genes detected by the arrays are listed below.

[12] = tested on: Human microvascular endothelial cells (ECs); assay: Senescence-associated β-galactosidase (SA-β-gal) staining with SYTO cell count; assay type: cell-based; details: for endothelial senescence / aging (overall finding): chronic exposure of human ECs; for SA-β-gal-positive cells / total cell count per microscopic field (SYTO-green staining): chronic treatment, at P6, vs vehicle
Experimental: as §3
Senescence-associated β-galactosidase (SA-β-gal) staining. Senescence of ECs was measured using the Cellular Senescence Assay kit from Cell Biolabs, Inc. (Cat: CBA-230, San Diego, Calif.). The protocol was performed according to the manufacturer's guide. Briefly, Ecs treated continuously for 3 passages with esomeprazole or vehicle were plated in a 6 well plate. Upon confluency, cells were initially fixed and later incubated with SA-β-gal working solution for 16 hours in a non-humidified CO2 free incubator at 37° C. After incubation the cells were counter stained with SYTO® GREEN fluorescent nucleic acid stain (Life Technologies). Several random images per well were taken using light and fluorescent microscope. The SA-β-gal positive cells were counted manually and total cell number per field was quantified using NIH ImageJ software.

[13] = tested on: lysosomal cathepsin B; assay: Magic Red Cathepsin B assay in live ECs; assay type: cell-based, human; details: ECs treated chronically, 5 and 10 μmol/L, P4-6, vs vehicle
Experimental: as §1, §4

[14] = tested on: Human microvascular endothelial cells (ECs); assay: RT2 Profiler PCR array, 331 genes from 5 pathways; assay type: cell-based; details: esomeprazole compared to vehicle (DMSO)
Experimental: as §3
(§5) Quantitative PCR and PCR array. Total RNA was isolated from cultured cells using PerfectPure RNA Cultured Cell Kit-50 from 5 PRIME (cat #2900319, San Francisco, Calif.) according to the manufacturer's instruction. […] Quantitative PCR (qPCR) was performed using Taqman gene expression assays (Applied Biosystems, Foster City, Calif.). All genes analyzed for expression (listed in the table below) were normalized to GAPDH expression and expressed as relative fold changes using the ΔCt method of analysis. Gene expression of shelterin complex genes was quantified using SYBR™ Green Real Time PCR master mix. […] Name, catalog numbers and genes detected by the arrays are listed below.

[15] = tested on: N-acetyl-β-d-glucosaminidase; assay: N-Acetyl-β-D-Glucosaminidase (NAG) activity assay, EC lysate; assay type: cell-based, human; details: ECs treated chronically, vs vehicle
Experimental: as §1, §4

[16] = tested on: Human microvascular endothelial cells (ECs); assay: PROTEOSTAT protein aggregation assay in ECs; assay type: cell-based; details: ECs treated chronically, vs vehicle
Experimental: as §1, §4

[17] = tested on: shelterin complex; assay: Shelterin complex gene expression by SYBR Green RT-PCR; assay type: cell-based, human; details: vs vehicle
Experimental: as §3, §5

[18] = tested on: PAI-1; assay: Western blot for PAI-1 protein expression; assay type: cell-based, human; details: vs vehicle
Experimental: as §3
Western blot analysis. Preparation of cell lysate, SDS-PAGE, transfer of proteins onto membrane and western blotting was performed as described previously (Rajapakse A G, et al., Hyperactive s6k1 mediates oxidative stress and endothelial dysfunction in aging: Inhibition by resveratrol. PloS one. 2011; 6:e19237.6). To detect PAI-1 protein expression anti-PAI-1 rabbit monoclonal antibody (Cell Signaling Technology, Inc. cat #11907S, Danvers, Mass.) was used and anti-α-Tubulin mouse monoclonal antibody (Sigma cat # T5168, St. Louis, Mo.) was used to normalize expression.

[19] = poor metabolizers (about 3% of whites, 23% of Asians); cited from earlier work

For COc1ccc2nc([S@@+]([O-])Cc3ncc(C)c(OC)c3C)[nH]c2c1 [esomeprazole], the “total nitrate levels (Griess)” value [1] was “decrease”, the “cell proliferation (5-bromo-2′-deoxyuridine assay)” value [2] was “dose-dependently impaired” and the telomere length [3] was “significant decrease”. The “telomerase expression or activity” value [4] was “neither group of ECs manifested telomerase expression or activity”, the “fluorescence intensity of pH-sensitive dye (pHrodo Green), inversely related to lysosomal pH” value ([5]; ECs, esomeprazole 5 and 10 μmol/L, 3 passages (P4-6), vs vehicle (DMSO)) was “significantly reduced” and the “pHrodo red fluorescence (lysosomal distribution)” value ([5]; second pH-sensitive dye, ESO treated vs vehicle treated ECs) was “reduced; also recorded: qualitatively similar findings”. The “histology at the 3-month time point (cell loss, EndoMT)” value [6] was “acceleration of EndoMT; also recorded: some cell loss or EndoMT”, the “NO generation (diamino fluorescein 2-diacetate staining)” value [7] was “less” and the “superoxide anion (dihydroethidium)” value [8] was “more”. The “activity of acid phosphatase” value [9] was “reduced”, the “angiogenic capacity of ECs (network formation)” value [10] was “impaired” and the “expression of COL1A1” value ([11]; EndoMT gene) was “upregulated”. The “expression of SMAD3” value ([11]; EndoMT gene) was “upregulated”, the “expression of TWIST1” value ([11]; EndoMT gene) was “upregulated” and the “expression of DDAH1/2” value ([11]; normalized to GAPDH) was “decrease”. The “expression of eNOS” value ([11]; normalized to GAPDH) was “decrease”, the “expression of iNOS” value ([11]; normalized to GAPDH) was “decrease” and the “expression of von Willebrand factor” value [11] was “decline”. The “plasminogen activator inhibitor (PAI-1) message expression” value [11] was “upregulated”, the “expression of cell cycle inhibitor p21 gene” value ([11]; chronic treatment) was “increased” and the “endothelial senescence / aging (overall finding)” value [12] was “accelerated”. For the same molecule, the SA-β-gal-positive cells [12] was “increased”, the “total cell count per microscopic field (SYTO-green staining)” value [12] was “decrease” and the “activity of lysosomal cathepsin-B” value [13] was “reduced”. The “Expression of genes (PCR array) strongly up-regulated, Table 4 gene list” value ([14]; 52 genes listed AGTR1 to ZEB2) was “Expressin of genes (PCR array) that are strongly up-regulated (>2 fold) upon”, the “Expression of genes (PCR array) strongly up regulated, Table 5 gene list” value ([14]; genes listed ACE to VWF) was “Expression of genes (PCR array) that are strongly up regulated (>2 fold) upon” and the N-acetyl-β-d-glucosaminidase activity [15] was “does not impair; also recorded: No difference”. The protein aggregates [16] was “increase”, the “expression of all 6 genes of the shelterin complex (TRF1, TRF2, POT1, RAP1, TIN2, TPP1)” value [17] was “global downregulation” and the “plasminogen activator inhibitor (PAI-1) protein expression” value [18] was “upregulated”. The “increase in plasma concentration in CYP2C19 poor metabolizers” value [19] was 3 fold.
With Cc1nc2c(OCc3ccccc3)cccn2c1CC#N [SCH-28080] the “endothelial senescence / aging (overall finding)” value [12] was “accelerated”, the SA-β-gal-positive cells [12] was “increased” and the “total cell count per microscopic field (SYTO-green staining)” value [12] was “decrease”.
